pIC50: −log10 of the molar value. Read-outs that look alike come from different tables or passages of the source.
Legend:
CYP3A4 [1] = biological target: T1, CYP3A4 (Homo sapiens, UniProt P08684); assay: Fluorimetric CYP inhibition assay, CYP3A4 (substrates BFC, BQ, DBF)
CYP2C8 [2] = biological target: T2, CYP2C8 (Homo sapiens, UniProt P10632); assay: biochemical
T2 sequence (P10632 1-490): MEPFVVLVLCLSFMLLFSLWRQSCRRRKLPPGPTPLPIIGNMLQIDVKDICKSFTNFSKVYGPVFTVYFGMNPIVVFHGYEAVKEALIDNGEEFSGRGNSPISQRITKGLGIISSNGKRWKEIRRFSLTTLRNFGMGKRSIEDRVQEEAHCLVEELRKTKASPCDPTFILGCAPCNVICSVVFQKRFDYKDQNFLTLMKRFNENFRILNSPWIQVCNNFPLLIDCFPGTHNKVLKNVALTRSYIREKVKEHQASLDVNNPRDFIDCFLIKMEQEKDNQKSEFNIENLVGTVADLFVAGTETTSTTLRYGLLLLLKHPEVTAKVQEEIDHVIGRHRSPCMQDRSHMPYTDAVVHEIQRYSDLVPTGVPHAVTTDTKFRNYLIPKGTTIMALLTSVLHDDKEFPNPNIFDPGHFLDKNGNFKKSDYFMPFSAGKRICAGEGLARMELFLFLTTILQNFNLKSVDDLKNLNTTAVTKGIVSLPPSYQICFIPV

CYP3A4 [3] = biological target: T1, CYP3A4
CYP2D6 = CYP2D6 (Homo sapiens, UniProt P10635); assay: in vitro
CYP2C8 [4] = biological target: T2, CYP2C8; assay: in vitro
CYP2C9 = CYP2C9 (Homo sapiens, UniProt P11712); assay: in vitro
CYP2B6 = biological target: T3, CYP2B6 (Homo sapiens, UniProt P20813); assay: in vitro
T3 sequence (P20813 1-491): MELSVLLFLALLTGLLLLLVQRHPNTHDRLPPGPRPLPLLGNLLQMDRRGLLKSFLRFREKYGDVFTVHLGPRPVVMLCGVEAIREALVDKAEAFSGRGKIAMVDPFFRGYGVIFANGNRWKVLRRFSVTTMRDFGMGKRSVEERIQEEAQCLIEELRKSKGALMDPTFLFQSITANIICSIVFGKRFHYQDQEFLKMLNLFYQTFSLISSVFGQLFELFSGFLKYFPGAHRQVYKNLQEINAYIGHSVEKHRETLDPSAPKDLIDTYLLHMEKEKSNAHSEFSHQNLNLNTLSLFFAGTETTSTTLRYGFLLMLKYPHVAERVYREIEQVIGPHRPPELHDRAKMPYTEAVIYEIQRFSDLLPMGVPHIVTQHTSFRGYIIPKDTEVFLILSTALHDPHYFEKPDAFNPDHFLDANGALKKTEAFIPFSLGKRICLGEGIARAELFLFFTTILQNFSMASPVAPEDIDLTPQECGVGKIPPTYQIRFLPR

CYP1A2 = biological target: T4, CYP1A2 (Homo sapiens, UniProt P05177); assay: Fluorimetric CYP inhibition assay, CYP1A2-CEC
T4 sequence (P05177 1-516): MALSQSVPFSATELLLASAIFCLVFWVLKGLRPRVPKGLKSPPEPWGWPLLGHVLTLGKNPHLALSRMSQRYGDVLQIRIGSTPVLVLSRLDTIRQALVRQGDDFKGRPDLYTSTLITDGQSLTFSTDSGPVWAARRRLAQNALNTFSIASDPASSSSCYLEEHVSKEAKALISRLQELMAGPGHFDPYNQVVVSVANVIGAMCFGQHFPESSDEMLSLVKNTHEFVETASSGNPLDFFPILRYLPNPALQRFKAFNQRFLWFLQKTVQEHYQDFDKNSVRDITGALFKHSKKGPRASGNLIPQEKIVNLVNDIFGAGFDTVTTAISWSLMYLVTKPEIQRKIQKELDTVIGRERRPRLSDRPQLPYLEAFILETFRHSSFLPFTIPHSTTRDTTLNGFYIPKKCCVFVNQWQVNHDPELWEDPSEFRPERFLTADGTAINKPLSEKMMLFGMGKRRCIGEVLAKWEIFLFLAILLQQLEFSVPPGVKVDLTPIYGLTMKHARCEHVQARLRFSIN

Chain of CYP2C9 (P11712 whole entry): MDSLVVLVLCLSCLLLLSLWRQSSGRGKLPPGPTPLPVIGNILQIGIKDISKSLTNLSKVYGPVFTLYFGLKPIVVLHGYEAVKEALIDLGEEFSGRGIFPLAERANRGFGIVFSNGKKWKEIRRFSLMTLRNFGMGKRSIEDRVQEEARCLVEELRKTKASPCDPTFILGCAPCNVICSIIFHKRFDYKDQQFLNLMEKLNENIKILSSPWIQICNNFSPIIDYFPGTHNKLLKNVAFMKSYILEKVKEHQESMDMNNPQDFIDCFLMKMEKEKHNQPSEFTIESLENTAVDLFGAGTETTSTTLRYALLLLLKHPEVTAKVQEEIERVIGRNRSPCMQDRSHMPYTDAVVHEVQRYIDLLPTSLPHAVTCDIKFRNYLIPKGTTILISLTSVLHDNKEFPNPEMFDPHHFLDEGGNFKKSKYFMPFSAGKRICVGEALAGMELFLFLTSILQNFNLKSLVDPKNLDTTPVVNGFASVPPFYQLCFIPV
T1 sequence (P08684 whole entry): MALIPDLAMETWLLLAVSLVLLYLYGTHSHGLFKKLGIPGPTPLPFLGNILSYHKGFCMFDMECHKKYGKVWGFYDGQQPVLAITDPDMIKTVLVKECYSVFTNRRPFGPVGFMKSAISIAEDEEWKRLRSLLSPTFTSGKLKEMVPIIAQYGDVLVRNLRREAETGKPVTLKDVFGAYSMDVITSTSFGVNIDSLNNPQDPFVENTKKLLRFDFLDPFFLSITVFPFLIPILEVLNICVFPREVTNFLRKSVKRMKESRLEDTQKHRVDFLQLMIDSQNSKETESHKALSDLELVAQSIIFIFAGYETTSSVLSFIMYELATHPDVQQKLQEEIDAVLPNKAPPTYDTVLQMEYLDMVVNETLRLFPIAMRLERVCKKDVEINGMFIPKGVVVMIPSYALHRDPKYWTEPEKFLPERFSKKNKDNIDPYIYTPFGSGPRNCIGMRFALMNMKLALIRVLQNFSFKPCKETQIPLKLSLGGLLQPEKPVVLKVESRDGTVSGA
Chain of CYP2D6 (P10635 whole entry): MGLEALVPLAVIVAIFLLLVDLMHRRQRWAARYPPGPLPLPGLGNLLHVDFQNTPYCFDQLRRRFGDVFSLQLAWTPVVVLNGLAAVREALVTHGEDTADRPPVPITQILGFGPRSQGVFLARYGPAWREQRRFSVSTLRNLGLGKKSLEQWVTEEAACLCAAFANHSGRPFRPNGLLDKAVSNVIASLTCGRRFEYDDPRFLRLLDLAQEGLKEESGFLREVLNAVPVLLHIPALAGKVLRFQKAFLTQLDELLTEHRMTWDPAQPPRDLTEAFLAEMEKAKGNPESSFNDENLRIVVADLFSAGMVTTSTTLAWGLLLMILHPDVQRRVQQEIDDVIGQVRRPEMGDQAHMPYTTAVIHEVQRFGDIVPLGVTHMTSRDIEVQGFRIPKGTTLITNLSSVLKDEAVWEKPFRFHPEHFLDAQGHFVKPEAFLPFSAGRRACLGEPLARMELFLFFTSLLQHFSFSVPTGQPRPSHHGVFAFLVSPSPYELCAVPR

CC(C)(CCCCCCCCCCCCC(C)(C)C(=O)O)C(=O)O [M16αα, 2,2,15,15-tetramethylhexadecane-1,16-dioic acid]
pIC50 (CYP3A4 [1]): < 4.00 | pIC50 (CYP2C8 [2]): < 4.00 | % Inhibition (set 1) (CYP3A4 [3]; 0.05 μM): 5% | % Inhibition (set 2) (CYP3A4 [3]; 0.05 μM): 1% | % Inhibition (set 1) (CYP3A4 [3]; 3.7 μM): 1% | % Inhibition (set 1) (CYP3A4 [3]; 33.33 μM): 4% | inhibition at 0.05 μM (CYP2D6; % Inhibition (set 1)): 0% | inhibition at 0.41 μM (CYP2D6; % Inhibition (set 1)): 0% | inhibition at 1.23 μM (CYP2D6; % Inhibition (set 1)): 0% | inhibition at 3.7 μM (CYP2D6; % Inhibition (set 1)): 0% | inhibition at 11.11 μM (CYP2D6; % Inhibition (set 1)): 3% | inhibition at 33.33 μM (CYP2D6; % Inhibition (set 1)): 11% | inhibition at 100 μM (CYP2D6; % Inhibition (set 1)): 7% | inhibition at 0.05 μM (CYP2D6; % Inhibition (set 2)): 0% | inhibition at 0.41 μM (CYP2D6; % Inhibition (set 2)): 0% | inhibition at 1.23 μM (CYP2D6; % Inhibition (set 2)): 0% | inhibition at 3.7 μM (CYP2D6; % Inhibition (set 2)): 0% | inhibition at 11.11 μM (CYP2D6; % Inhibition (set 2)): 2% | inhibition at 33.33 μM (CYP2D6; % Inhibition (set 2)): 15% | inhibition at 100 μM (CYP2D6; % Inhibition (set 2)): 0% | inhibition at 0.05 μM (CYP2C8 [4]; % Inhibition (set 1)): 0% | inhibition at 0.41 μM (CYP2C8 [4]; % Inhibition (set 1)): 1% | inhibition at 1.23 μM (CYP2C8 [4]; % Inhibition (set 1)): 0% | inhibition at 3.7 μM (CYP2C8 [4]; % Inhibition (set 1)): 4% | inhibition at 11.11 μM (CYP2C8 [4]; % Inhibition (set 1)): 13% | inhibition at 33.33 μM (CYP2C8 [4]; % Inhibition (set 1)): 23% | inhibition at 100 μM (CYP2C8 [4]; % Inhibition (set 1)): 43% | inhibition at 0.05 μM (CYP2C8 [4]; % Inhibition (set 2)): 0% | inhibition at 0.41 μM (CYP2C8 [4]; % Inhibition (set 2)): 0% | inhibition at 1.23 μM (CYP2C8 [4]; % Inhibition (set 2)): 0% | inhibition at 3.7 μM (CYP2C8 [4]; % Inhibition (set 2)): 0% | inhibition at 11.11 μM (CYP2C8 [4]; % Inhibition (set 2)): 0% | inhibition at 33.33 μM (CYP2C8 [4]; % Inhibition (set 2)): 15% | inhibition at 100 μM (CYP2C8 [4]; % Inhibition (set 2)): 38% | inhibition at 0.05 μM (CYP2C9; % Inhibition (set 1)): 4% | inhibition at 0.41 μM (CYP2C9; % Inhibition (set 1)): 5% | inhibition at 1.23 μM (CYP2C9; % Inhibition (set 1)): 2% | inhibition at 3.7 μM (CYP2C9; % Inhibition (set 1)): 6% | inhibition at 11.11 μM (CYP2C9; % Inhibition (set 1)): 15% | inhibition at 33.33 μM (CYP2C9; % Inhibition (set 1)): 15% | inhibition at 100 μM (CYP2C9; % Inhibition (set 1)): 29% | inhibition at 0.05 μM (CYP2C9; % Inhibition (set 2)): 0% | inhibition at 0.41 μM (CYP2C9; % Inhibition (set 2)): 5% | inhibition at 1.23 μM (CYP2C9; % Inhibition (set 2)): 9% | inhibition at 3.7 μM (CYP2C9; % Inhibition (set 2)): 0% | inhibition at 11.11 μM (CYP2C9; % Inhibition (set 2)): 7% | inhibition at 33.33 μM (CYP2C9; % Inhibition (set 2)): 14% | inhibition at 100 μM (CYP2C9; % Inhibition (set 2)): 31% | inhibition at 0.05 μM (CYP2B6; % Inhibition (set 1)): 0% | inhibition at 0.41 μM (CYP2B6; % Inhibition (set 1)): 7% | inhibition at 1.23 μM (CYP2B6; % Inhibition (set 1)): 4% | inhibition at 3.7 μM (CYP2B6; % Inhibition (set 1)): 29% | inhibition at 11.11 μM (CYP2B6; % Inhibition (set 1)): 8% | inhibition at 33.33 μM (CYP2B6; % Inhibition (set 1)): 17% | inhibition at 100 μM (CYP2B6; % Inhibition (set 1)): 27% | inhibition at 0.05 μM (CYP2B6; % Inhibition (set 2)): 2% | inhibition at 0.41 μM (CYP2B6; % Inhibition (set 2)): 0% | inhibition at 1.23 μM (CYP2B6; % Inhibition (set 2)): 3% | inhibition at 3.7 μM (CYP2B6; % Inhibition (set 2)): 2% | inhibition at 11.11 μM (CYP2B6; % Inhibition (set 2)): 8% | inhibition at 33.33 μM (CYP2B6; % Inhibition (set 2)): 12% | inhibition at 100 μM (CYP2B6; % Inhibition (set 2)): 28% | pIC50 (CYP1A2): < 4.00

CC(C)(CCCCCCCCCCC(C)(C)CC(=O)O)CC(=O)O [M16ββ, 3,3,14,14-tetramethylhexadecane-1,16-dioic acid]
pIC50 (CYP3A4 [1]): < 4.00 | pIC50 (CYP2C8 [2]): < 4.00 | % Inhibition (set 2) (CYP3A4 [3]; 1.23 μM): 12% | % Inhibition (set 2) (CYP3A4 [3]; 3.7 μM): 2% | inhibition at 0.05 μM (CYP2D6; % Inhibition (set 1)): 0% | inhibition at 0.41 μM (CYP2D6; % Inhibition (set 1)): 0% | inhibition at 1.23 μM (CYP2D6; % Inhibition (set 1)): 0% | inhibition at 3.7 μM (CYP2D6; % Inhibition (set 1)): 0% | inhibition at 11.11 μM (CYP2D6; % Inhibition (set 1)): 10% | inhibition at 33.33 μM (CYP2D6; % Inhibition (set 1)): 17% | inhibition at 100 μM (CYP2D6; % Inhibition (set 1)): 10% | inhibition at 0.05 μM (CYP2D6; % Inhibition (set 2)): 0% | inhibition at 0.41 μM (CYP2D6; % Inhibition (set 2)): 0% | inhibition at 1.23 μM (CYP2D6; % Inhibition (set 2)): 0% | inhibition at 3.7 μM (CYP2D6; % Inhibition (set 2)): 1% | inhibition at 11.11 μM (CYP2D6; % Inhibition (set 2)): 6% | inhibition at 33.33 μM (CYP2D6; % Inhibition (set 2)): 14% | inhibition at 100 μM (CYP2D6; % Inhibition (set 2)): 19% | inhibition at 0.05 μM (CYP2C8 [4]; % Inhibition (set 1)): 8% | inhibition at 0.41 μM (CYP2C8 [4]; % Inhibition (set 1)): 7% | inhibition at 1.23 μM (CYP2C8 [4]; % Inhibition (set 1)): 4% | inhibition at 3.7 μM (CYP2C8 [4]; % Inhibition (set 1)): 7% | inhibition at 11.11 μM (CYP2C8 [4]; % Inhibition (set 1)): 15% | inhibition at 33.33 μM (CYP2C8 [4]; % Inhibition (set 1)): 22% | inhibition at 100 μM (CYP2C8 [4]; % Inhibition (set 1)): 46% | inhibition at 0.05 μM (CYP2C8 [4]; % Inhibition (set 2)): 0% | inhibition at 0.41 μM (CYP2C8 [4]; % Inhibition (set 2)): 0% | inhibition at 1.23 μM (CYP2C8 [4]; % Inhibition (set 2)): 0% | inhibition at 3.7 μM (CYP2C8 [4]; % Inhibition (set 2)): 0% | inhibition at 11.11 μM (CYP2C8 [4]; % Inhibition (set 2)): 9% | inhibition at 33.33 μM (CYP2C8 [4]; % Inhibition (set 2)): 23% | inhibition at 100 μM (CYP2C8 [4]; % Inhibition (set 2)): 46% | inhibition at 0.05 μM (CYP2C9; % Inhibition (set 1)): 0% | inhibition at 0.41 μM (CYP2C9; % Inhibition (set 1)): 0% | inhibition at 1.23 μM (CYP2C9; % Inhibition (set 1)): 3% | inhibition at 3.7 μM (CYP2C9; % Inhibition (set 1)): 13% | inhibition at 11.11 μM (CYP2C9; % Inhibition (set 1)): 19% | inhibition at 33.33 μM (CYP2C9; % Inhibition (set 1)): 34% | inhibition at 100 μM (CYP2C9; % Inhibition (set 1)): 50% | inhibition at 0.05 μM (CYP2C9; % Inhibition (set 2)): 0% | inhibition at 0.41 μM (CYP2C9; % Inhibition (set 2)): 3% | inhibition at 1.23 μM (CYP2C9; % Inhibition (set 2)): 10% | inhibition at 3.7 μM (CYP2C9; % Inhibition (set 2)): 8% | inhibition at 11.11 μM (CYP2C9; % Inhibition (set 2)): 18% | inhibition at 33.33 μM (CYP2C9; % Inhibition (set 2)): 26% | inhibition at 100 μM (CYP2C9; % Inhibition (set 2)): 44% | inhibition at 0.05 μM (CYP2B6; % Inhibition (set 1)): 1% | inhibition at 0.41 μM (CYP2B6; % Inhibition (set 1)): 1% | inhibition at 1.23 μM (CYP2B6; % Inhibition (set 1)): 4% | inhibition at 3.7 μM (CYP2B6; % Inhibition (set 1)): 0% | inhibition at 11.11 μM (CYP2B6; % Inhibition (set 1)): 5% | inhibition at 33.33 μM (CYP2B6; % Inhibition (set 1)): 7% | inhibition at 100 μM (CYP2B6; % Inhibition (set 1)): 20% | inhibition at 0.05 μM (CYP2B6; % Inhibition (set 2)): 0% | inhibition at 0.41 μM (CYP2B6; % Inhibition (set 2)): 0% | inhibition at 1.23 μM (CYP2B6; % Inhibition (set 2)): 4% | inhibition at 3.7 μM (CYP2B6; % Inhibition (set 2)): 0% | inhibition at 11.11 μM (CYP2B6; % Inhibition (set 2)): 6% | inhibition at 33.33 μM (CYP2B6; % Inhibition (set 2)): 7% | inhibition at 100 μM (CYP2B6; % Inhibition (set 2)): 19% | pIC50 (CYP1A2): < 4.00

— patent US20100240683A1, “COMBINATION THERAPY, COMPOSITION AND METHODS FOR THE TREATMENT OF CARDIOVASCULAR DISORDERS” (Syndromex Ltd., priority 2007, published 2010)
